Measured values: patent US6528516B1, “Methods for reducing intraocular pressure using A3 adenosine receptor antagonists” (Trustees of the University of Pennsylvania, The Center for …, priority 1998, dated 2003)
“Also recorded” adds a separate entry of the source.

Experiments:
[1] = Oxidation of 1-methyl-1,4-dihydropyridine in rat brain homogenate; format: in vitro ADME; conditions: rat brain homogenate supernatant, pH 7.4, 37 C, read-out: t½ of oxidation to pyridinium salt 11
Description: The rat brain homogenate was prepared by the following method. One rat ([…]) was killed and the brain (weighing 2.26 g) was removed, and homogenized in 12 mL PBS (Biofluids, Inc., 1×pH 7.4). The homogenate was centrifuged at 12,000×rpm, and the supernatant was used. 5 mg of 24 dissolved in 0.2 mL of DMSO was mixed with 10 mL of brain homogenate (initial concentration of 1.27 mM), which was previously equilibrated to 37° C. in a water bath incubator, and shaking was continued at that temperature. Aliquots of 500 μL were withdrawn at 2, 4, 8, 16, 32, 64, 128, 256, 768 min (2×each) from the test medium, added immediately to 3 mL of ice-cold ethyl ether, shaken vigorously, and placed in a freezer. When all samples had been collected, and the ether layer of each sample was separated. After evaporation of the ether, each residue was dissolved in 200 μL methanol, filtered through Whatman 1 filter paper and analyzed by HPLC.
Pyridinium salt 11 could be generated through oxidation of the corresponding reduced precursor, 1-methyl-2,4-diethyl-3-(ethylsulfanylcarbonyl)-5-ethyloxycarbonyl-6-phenyl-1,4-dihydropyridine, 24. The conversion of 24 to 11 by chemical means (iodine in nitromethane) and during incubation at 37 C with rat brain membranes, to simulate in vivo conditions, was studied. The chemical conversion occurred readily, and the time course of the biochemical oxidation was recorded . […]

human A3 receptor = target: T1, human A3 receptor (Homo sapiens, UniProt P0DMS8); assay: Radioligand binding, [125I]AB-MECA, HEK-293 cell membranes; set-up: host or cells: HEK-293; conditions: read-out: Ki(hA3)
T1 sequence (P0DMS8 1-318): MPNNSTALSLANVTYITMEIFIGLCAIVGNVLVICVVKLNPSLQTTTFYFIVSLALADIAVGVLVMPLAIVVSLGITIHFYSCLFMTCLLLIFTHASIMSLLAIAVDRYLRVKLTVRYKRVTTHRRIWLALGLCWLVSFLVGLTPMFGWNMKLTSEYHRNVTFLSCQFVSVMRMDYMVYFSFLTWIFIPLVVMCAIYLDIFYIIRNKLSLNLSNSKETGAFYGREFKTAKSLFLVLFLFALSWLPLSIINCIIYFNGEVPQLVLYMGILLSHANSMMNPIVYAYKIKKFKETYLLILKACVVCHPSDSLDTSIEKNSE
Description: Natl. Acad. Sci. […] Natl. Acad. Sci. U.S.A. 89:7432-7436, 1992) was performed as described at 4° C. (Olah et al., Mol. Pharmacol. 45:978-982, 1994). The assay medium consisted of a buffer containing 10 mM Mg^2+, 50 mM Tris, 3 units/mL adenosine deaminase, and 1 mM EDTA, at pH 8.0 (4° C.). […] Incubations were terminated by rapid filtration over Whatman GF/B filters, using a Brandell cell harvester (Brandell, Gaithersburg, MD). The tubes were rinsed three times with 3 mL buffer each. At least five different concentrations of competitor, spanning 3 orders of magnitude adjusted appropriately for the IC50 of each compound, were used. IC50 values, calculated with the nonlinear regression method implemented in the InPlot program (Graph-PAD, San Diego, Calif.), were converted to apparent Ki values using the Cheng-Prusoff equation (Cheng et al., Biochem.

A2A receptors = target: T2, A2A receptors (Rattus norvegicus, UniProt P30543); assay: Radioligand binding, [3H]CGS 21680, rat striatal membranes; conditions: at 100 μM
T2 construct: to A2A receptors from rat striatal membranes; from tissue; host or cells: rat striatal membranes
Description: (§1) Radioligand binding studies. Binding of [^3H]R-N^6-phenylisopropyladenosine ([^3H]R-PIA) to A1 receptors from rat cerebral cortex membranes and of [^3H]-2-[4-[(2-carboxyethyl)phenyl]ethylamino]-5′-N-ethylcarbamoyladenosine ([^3H]CGS 21680) to A2A receptors from rat striatal membranes was performed as described previously (Schwabe et al., Naunyn Schmiedeberg Arch. Pharmacol. 313:179-187, 1980; Jarvis et al., J. Pharmacol. Exp. Ther. 251:888-893, 1989) Adenosine deaminase (3 units/mL) was present during the preparation of the brain membranes, in a pre-incubation of 30 min at 30° C., and during the incubation with the radioligands. Nonspecific binding was determined in the presence of 10 μM (A1 receptors) or 20 μM (A2A receptors)2-chloroadenosine.
(§2) All non-radioactive compounds were initially dissolved in DMSO, and diluted with buffer to the final concentration, where the amount of DMSO never exceeded 1%. Incubations were terminated by rapid filtration over Whatman GF/B filters, using a Brandell cell harvester (Brandell, Gaithersburg, MD). The tubes were rinsed three times with 3 mL buffer each.
(§3) At least five different concentrations of competitor, spanning 3 orders of magnitude adjusted appropriately for the IC50 of each compound, were used.

A1 receptors = target: T3, A1 receptors (Rattus norvegicus, UniProt P25099); assay: Radioligand binding, [3H]R-PIA, rat cerebral cortex membranes
T3 construct: A1 receptors from rat cerebral cortex membranes; from tissue; host or cells: rat cerebral cortex membranes
T3 sequence (P25099 1-326): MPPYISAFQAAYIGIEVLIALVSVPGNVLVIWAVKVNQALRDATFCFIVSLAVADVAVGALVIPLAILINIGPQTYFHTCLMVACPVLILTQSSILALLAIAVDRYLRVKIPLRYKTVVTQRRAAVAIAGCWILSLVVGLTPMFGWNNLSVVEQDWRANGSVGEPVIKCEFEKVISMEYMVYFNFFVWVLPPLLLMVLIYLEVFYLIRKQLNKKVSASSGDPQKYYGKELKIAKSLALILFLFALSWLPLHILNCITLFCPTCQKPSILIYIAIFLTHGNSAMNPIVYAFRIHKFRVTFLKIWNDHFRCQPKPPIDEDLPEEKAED
Description: as §1, §2, §3

A1 and A2A receptors = assay: Estimated occupancy of A1 and A2A receptors at the concentrations used; conditions: at the concentrations used (300 nM MRS 1097, 100 nM MRS 1191, 100 nM MRS 1523)
[2] = tested on: HCE (human ciliary epithelial) cell line, NPE cells; assay: Cell volume (shrinkage) of NPE cells in isosmotic solution, Coulter Counter, 5 μM gramicidin; format: cell-based; conditions: for effect of A3 antagonist on adenosine-stimulated isotonic shrinkage: 300 nM MRS-1097, 100 nM MRS-1191, 100 nM MRS-1523, 10 μM adenosine; for effect of A3 antagonist on IB-MECA-stimulated isotonic shrinkage: 2 min preincubation, MRS-1097 300 nM, MRS-1191 100 nM, 100 nM IB-MECA
Description: A 0.5-ml aliquot of the HCE cell suspension in DMEM was added to 20 ml of each test solution, which contained (in mM): 110.0 NaCl, 15.0HEPES [4-(2-hydroxyethyl)-1-piperazineethanesulfonic acid], 2.5 CaCl2, 1.2 MgCl2, 4.7 KCl, 1.2 KH2PO4, 30.0 NaHCO3, and 10.0 glucose, at a pH of 7.4 and osmolality of 298-305 mOsm. Parallel aliquots of cells were studied on the same day. One aliquot usually served as a control, and the others were exposed to different experimental conditions at the time of suspension. The same amount of solvent vehicle (dimethylformamide, DMSO or ethanol) was always added to the control and experimental aliquots. The sequence of studying the suspensions was varied to preclude systematic time-dependent artifacts (Civan et al., Exp. Eye Res. 54:181-191, 1992).
Cell volumes of isosmotic suspensions were measured with a Coulter Counter (model ZBI-Channelyzer II), using a 100-μm aperture (Civan et al., supra., 1994). As previously described (Wax et al., supra., 1993), the cell volume (vC) of the suspension was taken as the peak of the distribution function. Cell shrinkage was fit as a function of time (t) to a monoexponential function:
vC=v∞+(v0−v∞)−[e^−(t−t^0^)/τ] {1}
where v∞ is the steady-state cell volume, v0 is the cell volume at the first point (t0) of the time course to be fit, and τ is the time constant of the shrinkage. For purposes of data reduction, the data were normalized to the first time point, taken to be 100% isotonic volume. Fits were obtained by nonlinear least-squares regression analysis, permitting both v∞and τ to be variables.
In order to differentiate among these receptors, the experiments were repeated in the present study using a series of agonists and antagonists selective for these receptors. As we wished to identify the effects of these receptors specifically on Cl^− channels, 5 μM gramicidin D was included in all solutions to eliminate any potential contribution from K^+ channels. This ionophore readily partitions into plasma membranes to form a cation-selective pore, and is widely used for studying volume regulation (Hoffmann et al., in Interaction of Cell Volume and Cell Function, Lang et al., eds., Springer, Heidelberg, Germany, pp. 188-248, (ACEP Series 14), 1993)). Under these conditions, release of cell Cl^− becomes the rate-limiting factor in both hypo-(Civan et al., Exp. Eye Res. 54:181-191, 1992) and isoosmotic cell shrinkage (Carre et al., supra., 1997).

human A2 receptors = conditions: read-out: Ki for binding to human A2 receptors; cited from earlier work

T2 sequence (P30543 whole entry): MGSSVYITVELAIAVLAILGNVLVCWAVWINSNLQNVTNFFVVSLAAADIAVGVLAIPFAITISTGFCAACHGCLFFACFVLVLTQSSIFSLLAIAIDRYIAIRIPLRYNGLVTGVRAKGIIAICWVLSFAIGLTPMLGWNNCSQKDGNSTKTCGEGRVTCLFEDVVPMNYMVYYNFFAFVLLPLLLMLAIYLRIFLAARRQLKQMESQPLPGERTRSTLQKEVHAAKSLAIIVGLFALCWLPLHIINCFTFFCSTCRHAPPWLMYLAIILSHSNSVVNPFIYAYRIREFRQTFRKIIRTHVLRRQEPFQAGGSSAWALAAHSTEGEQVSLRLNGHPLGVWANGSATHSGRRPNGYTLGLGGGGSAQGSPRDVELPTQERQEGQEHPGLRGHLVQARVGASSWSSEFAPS

| Compound | half-life at 1.27 mM [1] [min] | Ki (human A3 receptor) [µM] | percent displacement of specific radioligand binding at rat A2A receptors (A2A receptors) [%] | Ki (A1 receptors) [µM] | share of the A1 and A2A receptors that could have been occupied (A1 and A2A receptors) [%] | effect of A3 antagonist on adenosine-stimulated isotonic shrinkage [2] | effect of A3 antagonist on adenosine-stimulated isotonic shrinkage ([2]; listed as MRS 1097) | effect of A3 antagonist on IB-MECA-stimulated isotonic shrinkage [2] | effect of A3 antagonist on IB-MECA-stimulated isotonic shrinkage ([2]; listed as MRS 1097) | Ki (human A2 receptors) [µM] |
| --- | --- | --- | --- | --- | --- | --- | --- | --- | --- | --- |
| CCOC(=O)C1=C(c2ccccc2)N(C)C(CC)=C(C(=O)SCC)C1CC (stereo not shown) [Compound 24, 1-Methyl-2,4-diethyl-3-(ethylsulfanylcarbonyl)5-ethyloxycarbonyl-6-phenyl-1,4-dihydropyridine] | ~47 | 0.379 ± 0.122 | 48±7 | 28.4 ± 2.5 | – | – | – | – | – | – |
| 3-ethyl 5-benzyl-2-methyl-6-phenyl-4-styryl-1,4-(±)-dihydropyridine-3,5-dicarboxylate [MRS-1097] | – | – | – | – | < 20 | prevented the characteristic shrinkage | blocked the shrinkage | prevented shrinkage | blocked the isoomotic shrinkage; also recorded: prevented the subsequent response; also recorded: prevent the shrinkage | 4.77 |
